Laboratory results from the supplement of paper PMC10307832.

What follows are cell lines tested with C=CCn1c(=O)c2cnc(Nc3ccc(N4CCN(C)CC4)cc3)nc2n1-c1cccc(C(C)(C)O)n1 [Adavosertib] + Nc1nc2[nH]cc(CCc3ccc(C(=O)N[C@@H](CCC(=O)O)C(=O)O)cc3)c2c(=O)[nH]1 [Pemetrexed] (partner 0.2 µM) (assay: relative viability (nuclei count vs DMSO), 5 days (fraction); higher = more cells survive). Settings: first compound 0.01 µM.
Method in brief: (§1)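 The day after seeding in 1536-well plates, lung cancer cell lines were treated by pin tool with a single drug, or with a fixed anchor-drug dose together with five library-drug doses (not always all listed) in √10 steps. After 5 days, a combined fix-and-stain solution (final 0.05% Triton X-100, 1% formaldehyde, 1 ug/ml Hoechst) was added. Nuclei counted on 4× images gave relative viability as treated counts over vehicle counts, reported as the median of duplicate plates.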

Cell Line | relative viability
201T | 0.319
A-427 | 0.97
BEN | 0.739
CAL-12T | 1.15
COR-L23 | 0.203
COR-L 105 | 0.976
ChaGo-K-1 | 0.271
EKVX | 0.426
EPLC-272H | 0.33
H3255 | 0.553
HARA | 0.244
HCC-15 | 0.221
HCC-44 | 0.677
HCC-78 | 0.921
HCC-366 | 0.227
HCC-827 | 0.283
HOP-62 | 0.311
LC-2-ad | 0.288

Cell Line | relative viability
LCLC-97TM1 | 0.214
LCLC-103H | 0.445
LK-2 | 0.266
LOU-NH91 | 0.371
LU99A | 0.156
NCI-H358 | 0.227
NCI-H522 | 1.02
NCI-H1395 | 0.766
NCI-H1563 | 0.677
NCI-H1648 | 0.595
NCI-H1792 | 0.858
NCI-H1793 | 0.808
NCI-H1944 | 0.621
NCI-H2170 | 0.282
NCI-H2342 | 0.754
SK-MES-1 | 0.958
SW 900 | 0.457

Same assay, conditions: first compound 0.03162 µM

Cell Line | relative viability
201T | 0.343
A-427 | 0.905
BEN | 0.76
CAL-12T | 1.25
COR-L23 | 0.198
COR-L 105 | 1.07
ChaGo-K-1 | 0.255
EKVX | 0.374
EPLC-272H | 0.258
H3255 | 0.59
HARA | 0.22
HCC-15 | 0.227
HCC-44 | 0.602
HCC-78 | 0.922
HCC-366 | 0.143
HCC-827 | 0.223
HOP-62 | 0.285
LC-2-ad | 0.276

Cell Line | relative viability
LCLC-97TM1 | 0.171
LCLC-103H | 0.462
LK-2 | 0.238
LOU-NH91 | 0.371
LU99A | 0.165
NCI-H358 | 0.189
NCI-H522 | 1.03
NCI-H1395 | 0.938
NCI-H1563 | 0.903
NCI-H1648 | 0.719
NCI-H1792 | 0.756
NCI-H1793 | 0.913
NCI-H1944 | 0.582
NCI-H2170 | 0.248
NCI-H2342 | 0.826
SK-MES-1 | 0.916
SW 900 | 0.484

Same assay, conditions: first compound 0.1 µM

Cell Line | relative viability
201T | 0.325
A-427 | 0.892
BEN | 0.816
CAL-12T | 1.02
COR-L23 | 0.204
COR-L 105 | 1.07
ChaGo-K-1 | 0.258
EKVX | 0.309
EPLC-272H | 0.175
H3255 | 0.563
HARA | 0.229
HCC-15 | 0.216
HCC-44 | 0.574
HCC-78 | 0.959
HCC-366 | 0.136
HCC-827 | 0.284
HOP-62 | 0.283
LC-2-ad | 0.302

Cell Line | relative viability
LCLC-97TM1 | 0.17
LCLC-103H | 0.427
LK-2 | 0.357
LOU-NH91 | 0.338
LU99A | 0.144
NCI-H358 | 0.166
NCI-H522 | 1.04
NCI-H1395 | 0.604
NCI-H1563 | 0.713
NCI-H1648 | 0.814
NCI-H1792 | 0.718
NCI-H1793 | 0.756
NCI-H1944 | 0.428
NCI-H2170 | 0.271
NCI-H2342 | 0.764
SK-MES-1 | 0.754
SW 900 | 0.492

Same assay, conditions: first compound 0.3162 µM

Cell Line | relative viability
201T | 0.281
A-427 | 0.893
BEN | 0.815
CAL-12T | 0.682
COR-L23 | 0.165
COR-L 105 | 0.916
ChaGo-K-1 | 0.257
EKVX | 0.362
EPLC-272H | 0.116
H3255 | 0.536
HARA | 0.191
HCC-15 | 0.229
HCC-44 | 0.433
HCC-78 | 0.887
HCC-366 | 0.0818
HCC-827 | 0.245
HOP-62 | 0.224
LC-2-ad | 0.277

Cell Line | relative viability
LCLC-97TM1 | 0.159
LCLC-103H | 0.449
LK-2 | 0.215
LOU-NH91 | 0.36
LU99A | 0.115
NCI-H358 | 0.157
NCI-H522 | 0.949
NCI-H1395 | 0.689
NCI-H1563 | 0.808
NCI-H1648 | 0.483
NCI-H1792 | 0.71
NCI-H1793 | 0.782
NCI-H1944 | 0.27
NCI-H2170 | 0.218
NCI-H2342 | 0.844
SK-MES-1 | 0.338
SW 900 | 0.443

These cell lines were tested with COc1nc(N)nc2c1ncn2[C@@H]1O[C@H](CO)[C@@H](O)[C@@H]1O [Nelarabine] + CC(C)C[C@H](NC(=O)[C@H](Cc1ccccc1)NC(=O)c1cnccn1)B(O)O [Bortezomib] (partner 0.002 µM) in the same assay as above. Settings: first compound 0.01 µM.
Method in brief: as §1

Cell Line | relative viability
201T | 1.11
A-427 | 1.01
ABC-1 | 0.28
BEN | 0.915
CAL-12T | 1.11
COR-L23 | 1.33
COR-L 105 | 1.02
Calu-6 | 1.1
ChaGo-K-1 | 0.997
EBC-1 | 0.559
EKVX | 1.35
EPLC-272H | 1.04
H3255 | 1.06
HARA | 1.19
HCC-15 | 1.33
HCC-44 | 1.05

Cell Line | relative viability
HCC-78 | 0.771
HCC-366 | 1.95
HCC-827 | 1.09
HOP-62 | 1.46
IA-LM | 0.989
LC-2-ad | 1.08
LCLC-97TM1 | 1.05
LCLC-103H | 1.36
LOU-NH91 | 0.447
LU99A | 1.33
NCI-H727 | 1.09
NCI-H1299 | 1.08
NCI-H1563 | 0.943
NCI-H1703 | 0.364
NCI-H1792 | 1.28

Same assay, conditions: first compound 0.03162 µM

Cell Line | relative viability
201T | 1.02
A-427 | 0.846
ABC-1 | 0.319
BEN | 0.652
CAL-12T | 0.973
COR-L23 | 1.08
COR-L 105 | 0.912
ChaGo-K-1 | 0.85
EBC-1 | 0.525
EKVX | 0.853
EPLC-272H | 0.925
H3255 | 0.868
HARA | 1.08
HCC-15 | 0.917
HCC-44 | 0.845
HCC-78 | 0.497
HCC-366 | 0.968
HCC-827 | 0.956
HOP-62 | 0.392
IA-LM | 1.04
LC-2-ad | 1.03
LCLC-103H | 1.05
LOU-NH91 | 0.519
LU99A | 1.09
NCI-H727 | 0.768
NCI-H1299 | 1.09
NCI-H1563 | 0.903
NCI-H1703 | 0.162

Same assay, conditions: first compound 0.1 µM

Cell Line | relative viability
201T | 1.12
A-427 | 1.01
ABC-1 | 0.251
BEN | 0.887
CAL-12T | 1.31
COR-L23 | 1.08
COR-L 105 | 0.683
Calu-6 | 1.05
ChaGo-K-1 | 1.26
EBC-1 | 0.548
EKVX | 1.05
EPLC-272H | 0.823
H3255 | 0.897
HARA | 1.16
HCC-15 | 1.18
HCC-44 | 0.866
HCC-366 | 1.33
HCC-827 | 1.02
HOP-62 | 1.11
IA-LM | 0.986
LC-2-ad | 0.972
LCLC-97TM1 | 0.716
LCLC-103H | 1.01
LOU-NH91 | 0.553
LU99A | 1.15
NCI-H727 | 0.869
NCI-H1299 | 1.05
NCI-H1563 | 0.766
NCI-H1703 | 0.405
NCI-H1792 | 1.05

Same assay, conditions: first compound 0.3162 µM

Cell Line | relative viability
201T | 1.15
A-427 | 0.895
ABC-1 | 0.245
BEN | 1.19
CAL-12T | 0.958
COR-L23 | 0.942
COR-L 105 | 0.678
Calu-6 | 0.947
ChaGo-K-1 | 0.93
EBC-1 | 0.55
EKVX | 1.25
EPLC-272H | 0.887
H3255 | 0.722
HARA | 1.21
HCC-15 | 1.11
HCC-44 | 0.924

Cell Line | relative viability
HCC-78 | 0.584
HCC-366 | 1.23
HCC-827 | 0.914
HOP-62 | 1.18
IA-LM | 0.927
LC-2-ad | 1.26
LCLC-97TM1 | 0.634
LCLC-103H | 1.13
LOU-NH91 | 0.474
LU99A | 1.23
NCI-H727 | 0.95
NCI-H1299 | 1.06
NCI-H1563 | 0.84
NCI-H1703 | 0.303
NCI-H1792 | 1.17

Same assay, conditions: first compound 1 µM

Cell Line | relative viability
201T | 1.08
A-427 | 0.961
ABC-1 | 0.297
BEN | 0.969
CAL-12T | 0.959
COR-L23 | 0.983
COR-L 105 | 0.979
Calu-6 | 1.08
ChaGo-K-1 | 0.925
EBC-1 | 0.549
EKVX | 1.14
EPLC-272H | 0.981
H3255 | 0.696
HARA | 1.02
HCC-15 | 1.14
HCC-44 | 0.924

Cell Line | relative viability
HCC-78 | 0.539
HCC-366 | 1.13
HCC-827 | 0.783
HOP-62 | 1.02
IA-LM | 0.748
LC-2-ad | 1.07
LCLC-97TM1 | 0.205
LCLC-103H | 1.1
LOU-NH91 | 0.513
LU99A | 1.33
NCI-H727 | 0.795
NCI-H1299 | 1.01
NCI-H1563 | 0.908
NCI-H1703 | 0.448
NCI-H1792 | 0.85

What follows are cell lines tested with COc1nc(N)nc2c1ncn2[C@@H]1O[C@H](CO)[C@@H](O)[C@@H]1O [Nelarabine] + Cc1nc(Nc2ncc(C(=O)Nc3c(C)cccc3Cl)s2)cc(N2CCN(CCO)CC2)n1 [Dasatinib] (partner 0.075 µM) in the same assay as above. Settings: first compound 0.01 µM.
Method in brief: as §1

Cell Line | relative viability
201T | 0.602
A-427 | 0.721
ABC-1 | 0.705
BEN | 0.296
CAL-12T | 0.426
COR-L23 | 0.611
COR-L 105 | 0.339
ChaGo-K-1 | 0.624
EKVX | 0.509
EPLC-272H | 0.323
HARA | 0.279
HCC-15 | 0.568
HCC-78 | 0.384
HCC-366 | 0.907
HCC-827 | 0.431
HOP-62 | 0.635
LC-2-ad | 0.556
LCLC-97TM1 | 1.03
LCLC-103H | 0.458
LK-2 | 0.337
LOU-NH91 | 0.628
LU99A | 0.522
NCI-H358 | 0.17
NCI-H522 | 0.863
NCI-H727 | 0.318
NCI-H1395 | 0.418
NCI-H1563 | 0.458
NCI-H1623 | 0.525
NCI-H1793 | 0.458
